# Data as given in PubChem BioAssay AID1963445 (Molecular Pharmacology Branch, DTP, NCI, 2024).
# System: MCF7 complex spheroid growth, % test/control
# Assay: Anticancer human tumor MCF7 cell line growth inhibition [Asc];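 also: spheroids exposed to compounds for 7 days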;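 as to viability, T/C: 100% = DMSO vehicle control wells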
# Conditions: for IC50: curve of first compound; for viability, T/C: stronger effect = lower value
# Method in brief: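 Complex spheroids combining tumor cells with HUVEC endothelial cells and human MSCs, at 37 degrees C, 5% CO2; agents tested alone or combined, half-log dilutions from at or near clinical Cmax, or 10 microM if Cmax unknown.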
structure (smiles),measurement,setting,value
Cn1ncnc1[C@H]1c2n[nH]c(=O)c3cc(F)cc(c23)N[C@@H]1c1ccc(F)cc1 + Cc1c(S(C)(=O)=O)c(-c2cc(F)cc(N3CCN(c4ccc(NS(=O)(=O)c5ccc(NC(CCN6CCC(C(=O)OCCCP(=O)(O)O)CC6)CSc6ccccc6)c(S(=O)(=O)C(F)(F)F)c5)cc4)CC3)c2)c(-c2ccc(Cl)cc2)n1C(C)C,IC50,second compound 0.0316 µM,20.6 nM
same,IC50,second compound 0.1 µM,44.3 nM
same,IC50,second compound 0.316 µM,32.1 nM
same,IC50,second compound 1 µM,22.5 nM
same,IC50,second compound 3.16 µM,39.4 nM
same,IC50,second compound 10 µM,17.2 nM
same,"viability, T/C","second compound 0.0316 µM, first compound 0.000316 µM",116%
same,"viability, T/C","second compound 0.0316 µM, first compound 0.001 µM",113%
same,"viability, T/C","second compound 0.0316 µM, first compound 0.00316 µM",74.6%
same,"viability, T/C","second compound 0.0316 µM, first compound 0.01 µM",59.4%
same,"viability, T/C","second compound 0.0316 µM, first compound 0.0316 µM",50.7%
same,"viability, T/C","second compound 0.0316 µM, first compound 0.1 µM",39.7%
same,"viability, T/C","second compound 0.1 µM, first compound 0.000316 µM",100%
same,"viability, T/C","second compound 0.1 µM, first compound 0.001 µM",89.8%
same,"viability, T/C","second compound 0.1 µM, first compound 0.00316 µM",78.9%
same,"viability, T/C","second compound 0.1 µM, first compound 0.01 µM",57.7%
same,"viability, T/C","second compound 0.1 µM, first compound 0.0316 µM",50.5%
same,"viability, T/C","second compound 0.1 µM, first compound 0.1 µM",49%
same,"viability, T/C","second compound 0.316 µM, first compound 0.000316 µM",103%
same,"viability, T/C","second compound 0.316 µM, first compound 0.001 µM",75%
same,"viability, T/C","second compound 0.316 µM, first compound 0.00316 µM",80.9%
same,"viability, T/C","second compound 0.316 µM, first compound 0.01 µM",54.2%
same,"viability, T/C","second compound 0.316 µM, first compound 0.0316 µM",50.9%
same,"viability, T/C","second compound 0.316 µM, first compound 0.1 µM",42.9%
same,"viability, T/C","second compound 1 µM, first compound 0.000316 µM",106%
same,"viability, T/C","second compound 1 µM, first compound 0.001 µM",81.7%
same,"viability, T/C","second compound 1 µM, first compound 0.00316 µM",95.7%
same,"viability, T/C","second compound 1 µM, first compound 0.01 µM",66.7%
same,"viability, T/C","second compound 1 µM, first compound 0.0316 µM",44.8%
same,"viability, T/C","second compound 1 µM, first compound 0.1 µM",39.3%
same,"viability, T/C","second compound 3.16 µM, first compound 0.000316 µM",110%
same,"viability, T/C","second compound 3.16 µM, first compound 0.001 µM",86.8%
same,"viability, T/C","second compound 3.16 µM, first compound 0.00316 µM",89.4%
same,"viability, T/C","second compound 3.16 µM, first compound 0.01 µM",57.3%
same,"viability, T/C","second compound 3.16 µM, first compound 0.0316 µM",50.6%
same,"viability, T/C","second compound 3.16 µM, first compound 0.1 µM",46.5%
same,"viability, T/C","second compound 10 µM, first compound 0.000316 µM",85.3%
same,"viability, T/C","second compound 10 µM, first compound 0.001 µM",83.6%
same,"viability, T/C","second compound 10 µM, first compound 0.00316 µM",74.6%
same,"viability, T/C","second compound 10 µM, first compound 0.01 µM",51.7%
same,"viability, T/C","second compound 10 µM, first compound 0.0316 µM",49.9%
same,"viability, T/C","second compound 10 µM, first compound 0.1 µM",36.7%
